Reference: ChEMBL document CHEMBL4190350, “Synthesis, antimicrobial, antiquorum-sensing, antitumor and cytotoxic activities of new series of cyclopenta(hepta)[b]thiophene and fused cyclohepta[b]thiophene analogs” (Eur J Med Chem, 2017)
≈ marks a conversion by molar mass, not a printed value. Calls of active or inactive are those of the source. The calls are words filed in the database; no cut-off is given here.

Legend:
HepG2 = assay: Antitumor activity against human HepG2 cells assessed as inhibition of cell viability incubated for 48 hrs by MTT assay; format: functional, cell-based; details: HepG2, 48 h
Escherichia coli [1] = assay: Antimicrobial activity against Escherichia coli incubated for 24 hrs by disc diffusion assay; format: functional
Mus musculus [2] = assay: Toxicity in mouse EAC cells implanted Swiss albino mouse assessed as hemoglobin level at 0.5 mg for 9 days (reference value: 8.15 g/dl); format: organism-based; details: in vivo, 216 h
HT-29 = assay: Antitumor activity against human HT-29 cells assessed as inhibition of cell viability incubated for 48 hrs by MTT assay; format: functional, cell-based; details: HT-29, 48 h
Aspergillus fumigatus [3] = assay: Antimicrobial activity against Aspergillus fumigatus incubated for 48 hrs by disc diffusion assay; format: functional
[4] = Binding affinity to DNA (unknown origin) assessed as reduction in absorption maxima for methyl green/DNA complex incubated for 24 hrs by methyl green/DNA displacement assay
Bacillus cereus [5] = assay: Antimicrobial activity against Bacillus cereus incubated for 24 hrs by disc diffusion assay; format: functional
Ehrlich [6] = assay: Antitumor activity against mouse EAC cells implanted in Swiss albino mouse assessed as increase in life span at 0.5 mg for 9 days relative to untreated control; format: functional
WI-38 = assay: Cytotoxicity in human WI38 cells assessed as inhibition of cell viability incubated for 48 hrs by MTT assay; format: cell-based; details: WI-38, 48 h
Staphylococcus aureus [7] = assay: Antimicrobial activity against Staphylococcus aureus incubated for 24 hrs by serial dilution method; format: functional
[8] = tested on: Chromobacterium violaceum; assay: Inhibition of quorum sensing system in Chromobacterium violaceum ATCC 12472 assessed as inhibition of violacein production at 5 mg/mL incubated for 48 hrs
Ehrlich [9] = assay: Antitumor activity against mouse EAC cells implanted in Swiss albino mouse assessed as mean survival time at 0.5 mg for 9 days (reference value: 14.5 day); format: functional
Candida albicans [10] = assay: Antimicrobial activity against Candida albicans incubated for 48 hrs by disc diffusion assay; format: functional
MCF7 = assay: Antitumor activity against human MCF7 cells assessed as inhibition of cell viability incubated for 48 hrs by MTT assay; format: functional, cell-based; details: MCF7, 48 h
Mus musculus [11] = assay: Toxicity in mouse EAC cells implanted Swiss albino mouse assessed as WBC count at 0.5 mg for 9 days (reference value: 23.96 10^3/mm3); format: organism-based; details: in vivo, 216 h
Staphylococcus aureus [12] = assay: Antimicrobial activity against Staphylococcus aureus incubated for 24 hrs by disc diffusion assay; format: functional
Mus musculus [13] = assay: Toxicity in mouse EAC cells implanted Swiss albino mouse assessed as RBC count at 0.5 mg for 9 days (reference value: 3.69 10^6/mm3); format: organism-based; details: in vivo, 216 h
Ehrlich [14] = assay: Antitumor activity against mouse EAC cells implanted in Swiss albino mouse assessed as tumor volume at 0.5 mg for 9 days (reference value: 9.85 ml); format: functional
Candida albicans [15] = assay: Antimicrobial activity against Candida albicans incubated for 48 hrs by serial dilution method; format: functional
Aspergillus fumigatus [16] = assay: Antimicrobial activity against Aspergillus fumigatus incubated for 48 hrs by serial dilution method; format: functional
Bacillus cereus [17] = assay: Antimicrobial activity against Bacillus cereus incubated for 24 hrs by serial dilution method; format: functional
Escherichia coli [18] = assay: Antimicrobial activity against Escherichia coli incubated for 24 hrs by serial dilution method; format: functional
Ehrlich [19] = assay: Antitumor activity against mouse EAC cells implanted in Swiss albino mouse assessed as reduction in tumor cell count at 0.5 mg for 9 days (reference value: 9.85 ml); format: functional, cell-based

SMILES | IC50 (HepG2) | diameter of the inhibition zone (DIZ) (Escherichia coli [1]) | Activity (Mus musculus [2]) | IC50 (HT-29) | diameter of the inhibition zone (DIZ) (Aspergillus fumigatus [3]) | IC50 [4] | diameter of the inhibition zone (DIZ) (Bacillus cereus [5]) | ILS (Ehrlich [6]) | IC50 (WI-38) | MIC (Staphylococcus aureus [7]) | INH [8] | MST (Ehrlich [9]) | diameter of the inhibition zone (DIZ) (Candida albicans [10]) | IC50 (MCF7) | Activity (Mus musculus [11]) | diameter of the inhibition zone (DIZ) (Staphylococcus aureus [12]) | Activity (Mus musculus [13]) | Activity (Ehrlich [14]) | MIC (Candida albicans [15]) | MIC (Aspergillus fumigatus [16]) | also measured
CCOC(=O)c1c(NN=C(C#N)C#N)sc2c1CCCCC2 | 10.8 µM | 7 mm | 12.54 g/dL | 7.6 µM | 9 mm | 55.3 µM | 11 mm | 193.1% | 53.5 µM | 988 µM (≈ 312 µg/mL) | 9 mm | 42.5 days | 11 mm | 8.2 µM | 8.18 ×10³ /mm3 | 19 mm | 5.09 ×10⁶ /mm3 | 2.7 mL | – | – | –
CC(=O)C1(C(C)=O)N=Nc2sc3c(c2C1=O)CCCCC3 | 20.7 µM | <2 mm | 12.04 g/dL | 12.8 µM | <2 mm | 45.5 µM | 7 mm | 148.27% | 47.6 µM | – | 3 mm | 36 days | 19 mm | 14.9 µM | 9.11 ×10³ /mm3 | <2 mm | 4.81 ×10⁶ /mm3 | 3.3 mL | 513 µM (≈ 156 µg/mL) | – | –
NNC(=O)c1c(NN=C2C(N)=NN=C2N)sc2c1CCCCC2 | 21.6 µM | 19 mm | – | 30.5 µM | 32 mm | 52.2 µM | 30 mm | – | – | 234 µM (≈ 78.1 µg/mL) | 12 mm | – | 24 mm | 23.2 µM | – | 28 mm | – | – | 467 µM (≈ 156 µg/mL) | 234 µM | MIC (Bacillus cereus [17]): 234 µM (≈ 78.1 µg/mL); MIC (Escherichia coli [18]): 467 µM (≈ 156 µg/mL)
CC1=NN=C(C)C1=NNc1sc2c(c1C(=O)NN)CCCCC2 | 6.9 µM | <2 mm | 13.23 g/dL | 5.7 µM | <2 mm | 27.8 µM | <2 mm | 227.55% | 33.2 µM | – | 5 mm | 47.5 days | <2 mm | 4.1 µM | 6.9 ×10³ /mm3 | <2 mm | 5.57 ×10⁶ /mm3 | 1.85 mL | – | – | Activity (Ehrlich [19]): Active
CO/N=C(\C(=O)N[C@@H]1C(=O)N2C(C(=O)O)=C(COC(C)=O)CS[C@H]12)c1csc(N)n1 [CEFOTAXIME] | – | – | – | – | – | – | – | – | – | 32.9 µM (≈ 15 µg/mL) | – | – | – | – | – | – | – | – | – | – | MIC (Escherichia coli [18]): 13.6 µM (≈ 6.19 µg/mL)
CC1(C)S[C@@H]2[C@H](NC(=O)[C@H](N)c3ccccc3)C(=O)N2[C@H]1C(=O)O [AMPICILLIN] | – | 28 mm | – | – | – | – | 12 mm | – | – | 894 µM (≈ 313 µg/mL) | – | – | – | – | – | 20 mm | – | – | – | – | MIC (Bacillus cereus [17]): 3580 µM (≈ 1250 µg/mL); MIC (Escherichia coli [18]): 55.9 µM (≈ 19.5 µg/mL)
CCOC(=O)/C(=N/Nc1sc2c(c1C(=O)OCC)CCCCC2)C(C)=O | 9.1 µM | 22 mm | 13.15 g/dL | 4.5 µM | <2 mm | 40.6 µM | 24 mm | 210.34% | 44.8 µM | 205 µM (≈ 78.1 µg/mL) | < 2 mm | 45 days | <2 mm | 5.8 µM | 7.11 ×10³ /mm3 | 32 mm | 5.51 ×10⁶ /mm3 | 1.97 mL | – | – | MIC (Bacillus cereus [17]): 411 µM (≈ 156 µg/mL); MIC (Escherichia coli [18]): 205 µM (≈ 78.1 µg/mL); Activity (Ehrlich [19]): Active
CCOC(=O)c1c(NN=C(C(C)=O)C(C)=O)sc2c1CCCCC2 | 30.6 µM | 6 mm | – | 53.3 µM | 30 mm | 37.1 µM | 14 mm | – | – | – | 4 mm | – | 20 mm | 21.4 µM | – | 8 mm | – | – | 223 µM (≈ 78.1 µg/mL) | 223 µM | –
CCOC(=O)/C(=N/Nc1sc2c(c1C(=O)OCC)CCC2)C(C)=O | 16.1 µM | 4 mm | 13.1 g/dL | 8.8 µM | 16 mm | 65.7 µM | 7 mm | 205.52% | 25.3 µM | – | 6 mm | 44.3 days | 5 mm | 9.7 µM | 7.56 ×10³ /mm3 | <2 mm | 5.49 ×10⁶ /mm3 | 2.32 mL | – | 887 µM | Activity (Ehrlich [19]): Active
OC(Cn1cncn1)(Cn1cncn1)c1ccc(F)cc1F [FLUCONAZOLE] | – | – | – | – | <2 mm | – | – | – | – | – | – | – | 22 mm | – | – | – | – | – | 4080 µM (≈ 1250 µg/mL) | > 2500 µg/mL | –
CCOC(=O)c1c(NN=C(C(C)=O)C(C)=O)sc2c1CCC2 | 13.8 µM | 21 mm | 12.23 g/dL | 18.7 µM | 26 mm | 42.2 µM | 26 mm | 172.35% | 33.5 µM | 485 µM (≈ 156 µg/mL) | 11 mm | 39.5 days | 23 mm | 7.6 µM | 8.76 ×10³ /mm3 | 22 mm | 4.95 ×10⁶ /mm3 | 3.13 mL | 485 µM (≈ 156 µg/mL) | 485 µM | MIC (Bacillus cereus [17]): 485 µM (≈ 156 µg/mL); MIC (Escherichia coli [18]): 485 µM (≈ 156 µg/mL)
